From PubChem BioAssay (NCI)
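Interpolation was linear, between the two tested concentrations surrounding the appropriate level; five concentrations were tested over 48 hours in 96-well plates. TGI is the concentration that stops growth completely.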

Columns and labels:
Experiment in all cases: DTP human tumour cell line panel, 48 h
[1] = tested on: SF-268 CNS
[2] = tested on: K-562 leukemia
[3] = tested on: HCT-116 colon
[4] = tested on: KM20L2 colon
[5] = tested on: SNB-19 CNS
[6] = tested on: HT29 colon
[7] = tested on: A498 renal
[8] = tested on: SNB-78 CNS
[9] = tested on: CCRF-CEM leukemia
[10] = tested on: DMS 273 small cell lung
[11] = tested on: LXFL 529 NSCLC
[12] = tested on: COLO 205 colon
[13] = tested on: HOP-92 NSCLC
[14] = tested on: HOP-62 NSCLC
[15] = tested on: TK-10 renal
[16] = tested on: KM12 colon
[17] = tested on: HL-60(TB) leukemia
[18] = tested on: SN12C renal
[19] = tested on: HCT-15 colon
[20] = tested on: OVCAR-3 ovarian
[21] = tested on: SK-MEL-28 melanoma
[22] = tested on: SW-620 colon
[23] = tested on: SF-539 CNS
[24] = tested on: RXF-631 renal
[25] = tested on: 786-0 renal
[26] = tested on: NCI-H522 lung
[27] = tested on: NCI-H460 lung
[28] = tested on: M14 melanoma
[29] = tested on: SR leukemia
[30] = tested on: OVCAR-4 ovarian
[31] = tested on: MALME-3M melanoma
[32] = tested on: NCI-H23 lung
[33] = tested on: XF 498 CNS
[34] = tested on: MOLT-4 leukemia
[35] = tested on: M19-MEL melanoma
[36] = tested on: RPMI-8226 leukemia
[37] = tested on: ACHN renal
[38] = tested on: CAKI-1 renal
[39] = tested on: HCC-2998 colon
[40] = tested on: SF-295 CNS
[41] = tested on: A549 NSCLC
[42] = tested on: OVCAR-5 ovarian
[43] = tested on: NCI-H226 lung
[44] = tested on: SK-MEL-2 melanoma
[45] = tested on: UO-31 renal
[46] = tested on: EKVX NSCLC
[47] = tested on: RXF 393 renal
[48] = tested on: DMS 114 small cell lung
[49] = tested on: U251 CNS
[50] = tested on: LOX IMVI melanoma
[51] = tested on: HOP-18 NSCLC
[52] = tested on: IGROV1 ovarian
[53] = tested on: SNB-75 CNS
[54] = tested on: UACC-62 melanoma
[55] = tested on: UACC-257 melanoma
[56] = tested on: SK-MEL-5 melanoma
[57] = tested on: DLD-1 colon
[58] = tested on: SK-OV-3 ovarian
[59] = tested on: OVCAR-8 ovarian

Measured: TGI

CCSc1c2ccccc2c(-c2nc(F)nc(F)n2)n1CCc1ccccc1
> 100 µM: [1] | [2] | [3] | [4] | [5] | [6] | [7] | [8] | [9] | [10] | [11] | [12] | [13] | [14] | [15] | [16] | [17] | [18] | [19] | [20] | [21] | [22] | [23] | [24] | [25] | [26] | [27] | [28] | [29] | [30] | [31] | [32] | [33] | [34] | [35] | [36] | [37] | [38] | [39] | [40] | [41] | [42] | [43] | [44] | [45] | [46] | [47] | [48] | [49] | [50]

O=C(Nc1nc2c(ncn2C2OC(CO)C(O)C2O)c(=O)[nH]1)c1ccccc1 (stereo not given)
> 100 µM: [51] | [1] | [2] | [3] | [4] | [6] | [7] | [8] | [9] | [10] | [52] | [11] | [12] | [53] | [13] | [14] | [15] | [16] | [17] | [18] | [19] | [20] | [21] | [22] | [23] | [24] | [25] | [26] | [27] | [28] | [29] | [54] | [30] | [31] | [32] | [33] | [35] | [55] | [36] | [37] | [38] | [40] | [41] | [56] | [42] | [43] | [57] | [58] | [44] | [45] | [46] | [47] | [49] | [50] | [59]
